Our source for the IC50 values is patent US10173991B2, “Sulfone amide linked benzothiazole inhibitors of endothelial lipase” (BRISTOL-MYERS SQUIBB COMPANY, priority 2014, dated 2019).

The assay has as its target Endothelial lipase (EL) (Homo sapiens (Human), UniProt Q9Y5X9). The assay is described as follows: Endothelial lipase (EL) enzymatic assay with fluorescent substrate A10070 in DMPG vesicles. It is filed as biochemical. The procedure, abridged: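 EL from conditioned medium of HT-1080 cells engineered to overexpress endogenous EL; HL partially purified from conditioned medium of HL-overexpressing COS cells. Enzyme preincubated with compound 30 min at 37° C in 50 mM HEPES pH 8.0, 50 mM NaCl, 1 mM CaCl2; DMPG vesicles carrying FRET substrate (0.11 mole fraction) then added.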

Endothelial lipase (EL), sequence (Q9Y5X9 21-500): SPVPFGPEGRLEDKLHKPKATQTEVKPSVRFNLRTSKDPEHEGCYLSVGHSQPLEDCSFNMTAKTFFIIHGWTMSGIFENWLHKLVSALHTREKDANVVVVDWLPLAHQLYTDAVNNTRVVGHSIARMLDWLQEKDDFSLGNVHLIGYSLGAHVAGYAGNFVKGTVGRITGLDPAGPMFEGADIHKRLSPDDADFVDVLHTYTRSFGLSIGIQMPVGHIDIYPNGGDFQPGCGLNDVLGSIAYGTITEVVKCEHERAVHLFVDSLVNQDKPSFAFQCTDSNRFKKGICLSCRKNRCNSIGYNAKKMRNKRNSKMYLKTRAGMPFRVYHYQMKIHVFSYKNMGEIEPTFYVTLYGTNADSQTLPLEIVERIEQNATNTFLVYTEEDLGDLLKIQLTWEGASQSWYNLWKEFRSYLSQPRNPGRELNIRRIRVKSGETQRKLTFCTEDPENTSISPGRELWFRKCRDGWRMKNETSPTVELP

The IC50 is the concentration needed to halve the response being measured. Higher therefore signals a need for much substance. For `O=C(CNC(=O)C(c1nc2cc(F)c(-c3cncnc3)cc2s1)S(=O)(=O)c1ccc(F)c(F)c1)NC1CC1` (centres unmarked) [Example 445, N-[(cyclopropyl-carbamoyl)methyl]-2-(3,4-difluorobenzene-sulfonyl)-2-[5-fluoro-6-(pyrimidin-5-yl)-1,3-benzothiazol-2-yl]acetamide], the IC50 worked out at 0.059 µM.

`O=C(CNC(=O)C(c1nc2cc(F)c(-c3cncnc3)cc2s1)S(=O)(=O)c1cccc(-c2cncnc2)c1)NC1CC1` (centres unmarked) [Example 446, N-[(cyclopropyl-carbamoyl)methyl]-2-[5-fluoro-6-(pyrimidin-5-yl)-1,3-benzothiazol-2-yl]-2-[3-(pyrimidin-5-yl)benzenesulfonyl] acetamide] returned an IC50 of 0.078 µM. Under `O=C(CNC(=O)C(c1nc2ccc(-c3ccc4c(c3)CNC4=O)cc2s1)S(=O)(=O)c1ccc(F)cc1)NC1CC1` (centres unmarked) [Example 447, N-[(cyclopropyl-carbamoyl)methyl]-2-(4-fluorobenzene-sulfonyl)-2-[6-(1-oxo-2,3-dihydro-1H-isoindol-5-yl)-1,3-benzothiazol-2-yl}acetamide] stands 0.009 µM; under `O=C(CNC(=O)C(c1nc2ccc(-c3ccc(C(=O)N4CCOCC4)cc3)cc2s1)S(=O)(=O)c1ccc(F)cc1)NC1CC1` (centres unmarked) [Example 448, N-[(cyclopropyl-carbamoyl)methyl]-2-(4-fluorobenzene-sulfonyl)-2-{6-[4-(morpholine-4-carbonyl)phenyl]-1,3-benzothiazol-2-yl}acetamide], 0.01 µM; under `O=C(CNC(=O)C(c1nc2ccc(-c3ccccc3)cc2s1)S(=O)(=O)c1ccc(F)cc1)NC1CC1` (centres unmarked) [Example 449, N-[(cyclopropyl-carbamoyl)methyl]-2-(4-fluorobenzene-sulfonyl)-2-(6-phenyl-1,3-benzothiazol-2-yl)acetamide], 0.016 µM. Next, `COCCNC(=O)c1ccc(-c2ccc3nc(C(C(=O)NCC(=O)NC4CC4)S(=O)(=O)c4ccc(F)cc4)sc3c2)cc1` (centres unmarked) [Example 450, 4-[2-({[(cyclopropyl-carbamoyl)methyl]carbamoyl}(4-fluorobenzene-sulfonyl)methyl)-1,3-benzothiazol-6-yl]-N-(2-methoxyethyl) benzamide]: 0.019 µM; `O=C(CNC(=O)C(c1nc2ccc(-c3ccc4c(c3)C(=O)NC4)cc2s1)S(=O)(=O)c1ccc(F)cc1)NC1CC1` (centres unmarked) [Example 451, N-[(cyclopropyl-carbamoyl)methyl]-2-(4-fluorobenzene-sulfonyl)-2-[6-(3-oxo-2,3-dihydro-1H-isoindol-5-yl)-1,3-benzothiazol-2-yl}acetamide]: 0.039 µM. `Cc1ncc(-c2ccc3nc(C(C(=O)NCC(=O)NC4CC4)S(=O)(=O)c4ccc(F)cc4)sc3c2)cn1` (centres unmarked) [Example 452, N-[(cyclopropyl-carbamoyl)methyl]-2-(4-fluorobenzene-sulfonyl)-2-[6-(2-methylpyrimidin-5-yl)-1,3-benzothiazol-2-yl]acetamide] gave an IC50 of 0.039 µM. Under `O=C1Cc2ccc(-c3ccc4nc(C(C(=O)NCC(=O)NC5CC5)S(=O)(=O)c5ccc(F)cc5)sc4c3)cc2N1` (centres unmarked) [Example 453, N-[(cyclopropyl-carbamoyl)methyl]-2-(4-fluorobenzene-sulfonyl)-2-[6-(2-oxo-2,3-dihydro-1H-indol-6-yl)-1,3-benzothiazol-2-yl]acetamide] stands 0.067 µM. The molecule `COc1cc(-c2ccc3nc(C(C(=O)NCC(=O)NC4CC4)S(=O)(=O)c4ccc(F)cc4)sc3c2)ccn1` (centres unmarked) [Example 454, N-[(cyclopropyl-carbamoyl)methyl]-2-(4-fluorobenzene-sulfonyl)-2-[6-(2-methoxypyridin-4-yl)-1,3-benzothiazol-2-yl]acetamide] displayed an IC50 of 0.073 µM. Under `CC(C)OCCNC(=O)CNC(=O)C(c1nc2ccc(-c3ccc(F)nc3)cc2s1)S(=O)(=O)c1ccc(F)cc1` (centres unmarked) [Example 455, 2-(4-fluorobenzene-sulfonyl)-2-[6-(6-fluoropyridin-3-yl)-1,3-benzothiazol-2-yl]-N-({[2-(propan-2-yloxy)ethyl]carbamoyl}methyl)acetamide] stands 0.1 µM; under `COc1ccc(-c2ccc3nc(C(C(=O)NCC(=O)NC4CC4)S(=O)(=O)c4ccc(F)cc4)sc3c2)cn1` (centres unmarked) [Example 456, N-[(cyclopropyl-carbamoyl)methyl]-2-(4-fluorobenzene-sulfonyl)-2-[6-(6-methoxypyridin-3-yl)-1,3-benzothiazol-2-yl]acetamide], 0.109 µM; under `O=C(CNC(=O)C(c1nc2ccc(-c3ccc(F)nc3)cc2s1)S(=O)(=O)c1ccc(F)cc1)NC1CC1` (centres unmarked) [Example 457, N-[(cyclopropyl-carbamoyl)methyl]-2-(4-fluorobenzene-sulfonyl)-2-[6-(6-fluoropyridin-3-yl)-1,3-benzothiazol-2-yl]acetamide], 0.024 µM.

`Cn1ccc(-c2ccc3nc(C(C(=O)NCC(=O)NC4CC4)S(=O)(=O)c4ccc(F)cc4)sc3c2)cc1=O` (centres unmarked) [Example 458, N-[(cyclopropyl-carbamoyl)methyl]-2-(4-fluorobenzene-sulfonyl)-2-[6-(1-methyl-2-oxo-1,2-dihydropyridin-4-yl)-1,3-benzothiazol-2-yl]acetamide]: the IC50 amounted to 0.032 µM. This IC50 and that of the molecule before are within 1.5-fold of each other. Molecule `Cn1nccc1-c1ccc2nc(C(C(=O)NCC(=O)NC3CC3)S(=O)(=O)c3ccc(F)cc3)sc2c1` (centres unmarked) [Example 459, N-[(cyclopropyl-carbamoyl)methyl]-2-(4-fluorobenzene-sulfonyl)-2-[6-(1-methyl-1H-pyrazol-5-yl)-1,3-benzothiazol-2-yl]acetamide] gave an IC50 of 0.018 µM. Compared with the last molecule, the IC50 is about 1.8-fold lower. Next, `O=C(CNC(=O)C(c1nc2ccc(-c3cncnc3)cc2s1)S(=O)(=O)c1ccc(F)cc1)NC1CC1` (centres unmarked) [Example 460, N-[(cyclopropyl-carbamoyl)methyl]-2-(4-fluorobenzene-sulfonyl)-2-[6-(pyrimidin-5-yl)-1,3-benzothiazol-2-yl]acetamide]: 0.047 µM; `COCCNC(=O)CNC(=O)C(c1nc2ccc(-c3ccc(F)nc3)cc2s1)S(=O)(=O)c1ccc(F)cc1` (centres unmarked) [Example 461, 2-(4-fluorobenzene-sulfonyl)-2-[6-(6-fluoropyridin-3-yl)-1,3-benzothiazol-2-yl]-N-{[(2-methoxyethyl)carbamoyl]methyl} acetamide]: 0.15 µM.

As for `COCCNC(=O)CNC(=O)C(c1nc2ccc(-c3ccc(C(=O)NCCOC)cc3)cc2s1)S(=O)(=O)c1ccc(F)cc1` (centres unmarked) [Example 462, 4-{2-[(4-fluorobenzene-sulfonyl)({[(2-methoxyethyl)carbamoyl]methyl}carbamoyl)methyl]-1,3-benzothiazol-6-yl}-N-(2-methoxyethyl) benzamide], the midpoint of inhibition, the IC50, lay at 0.004 µM. This IC50 lies about 38-fold lower than the previous one. Under `COCCNC(=O)CNC(=O)C(c1nc2ccc(-c3ccn(C)c(=O)c3)cc2s1)S(=O)(=O)c1ccc(F)cc1` (centres unmarked) [Example 463, 2-(4-fluorobenze-nesulfonyl)-N-{[(2-methoxyethyl)carbamoyl]methyl}-2-[6-(1-methyl-2-oxo-1,2-dihydropyridin-4-yl)-1,3-benzothiazol-2-yl]acetamide] stands 0.024 µM; under `CC(C)OCCNC(=O)CNC(=O)C(c1nc2ccc(-c3ccn(C)c(=O)c3)cc2s1)S(=O)(=O)c1ccc(F)cc1` (centres unmarked) [Example 464, 2-(4-fluorobenzene-sulfonyl)-2-[6-(1-methyl-2-oxo-1,2-dihydropyridin-4-yl)-1,3-benzothiazol-2-yl]-N-({[2-(propan-2-yloxy)ethyl]carbamoyl}methyl)acetamide], 0.045 µM.
